Measured values from US20240148745A1, “COMPOUNDS FOR USE IN PROGRESSIVE MULTIPLE SCLEROSIS” (FONDAZIONE CENTRO SAN RAFFAELE, priority 2021, published 2024).

How the values were obtained:
[1] = test system: neonatal mouse oligodendrocyte progenitor cells; test: MTT metabolic activity / toxicity assay on neonatal mouse OPCs; type: cell-based; conditions: 1 and 10 microM, viability vs DMSO
Description: Purified oligodendrocyte progenitor cells (OPC) obtained from neonatal mouse primary mixed glial cultures^25 were plated at the density of 6*10^4 cells/cm^2 into poly-L-lysine-coated 96 well plates. One day after plating, the cells were incubated with or without drugs (10, 1 and 0.1 μM) in DMSO (0.001% vehicle) for 48 hours. Compounds were screened for their ability to reduce [3-(4,5-dimethylthiazol-2-yl)-2,5-diphenyltetrazolium bromide (MTT)] using an automated microplate reader (Bio-rad, Hercules, CA, USA), as previously described.^25 MTT (0.25 mg/ml, Sigma-Aldrich, St Louis, MO) was added to the culture medium during the final 4 hours of incubation.
Toxicity of the full list of drugs (274) at 10 μM have been evaluated on neonatal mouse oligodendrocyte progenitor cells via metabolic activity by MTT. First, drugs able to reduce OPC viability were selected, identifying 90 compounds with a cytotoxic effect defined by the Efficacy Ratio ER (absorbance of drug/absorbance of vehicle; PMID: 28387380) (ER≤0.4) which have not been further investigated—and 44 drugs inhibiting OPC metabolism at lower level (0.5<ER<0.8)—which were analyzed in the next experimental setting. As a result, 90 compounds were cytotoxic, 44 compounds with low toxicity were retested at 1 and 0.1 μM, 140 compounds (ER>0.8) were non-toxic and were re-tested.

[2] = test system: double fluorescence CG4 cell line (rat OPC line); test: Toxicity assay (cell density) on double fluorescence CG4 line; type: cell-based; conditions: 1 and 10 microM, viability vs basal condition
Excerpt: Primary validation on CG4 line toxicity and differentiation. An innovative OPC line was developed for fast and reliable high content screening (HCS) of small compounds inducing oligodendrocyte differentiation. The line was genetically engineered by lentiviral transduction of rat CG4 cells (PubMed=1613821; DOI=10.1002/jnr.490310125; Louis J. C., Magal E., Muir D., Manthorpe M., Varon S.; CG-4, a new bipotential glial cell line from rat brain, is capable of differentiating in vitro into either mature oligodendrocytes or type-2 astrocytes. J. Neurosci. Res. 31:193-204(1992) to express mCherry fluorescent reporter (Evercooren, Anne & Avellana-Adalid, V. & Vitry, Sandrine & Nait-Oumesmar, Brahim & Lachapelle, Francois. (1997). Expansion of Oligodendrocyte Progenitors for Myelin Repair. 10.1007/978-1-4615-5949-8_21) in mature oligodendrocytes only, and EGFP at all stage of the oligodendroglial lineage: both the generation of mature oligodendrocytes (wmNl-mCherry) and the morphological changes associated with differentiation (CMV-EGFP) can be therefore monitored in a single assay. mCherry expression occurred only in O4+/GalC+ differentiated oligodendrocytes and GFP was ubiquitously expressed at all developmental stages. […]
Compounds (272) were tested at 1 μM, using a double fluorescence CG4 cell line (rat OPC line), 9 cis-retinoic acid (1 μM) served as a positive control.

In the case of `O=C(N[C@@H]1CC[C@@H](c2cccc(F)c2F)CN(CC(F)(F)F)C1=O)N1CCC(n2c(=O)[nH]c3ncccc32)CC1` [Telcagepant], the “cytotoxicity on neonatal mouse OPCs” value [1] was “not toxic on oligodendrocytes” and the “cytotoxicity on CG4 line” value [2] was “not toxic on oligodendrocytes”.
